Assays:
bulrush [1] = experiment: Test Example 2: herbicidal efficacy on rice paddy weeds post-emergence; assay type: in vivo, Scirpus juncoides; conditions: dosage 1000 g/ha; post-emergence, one leaf stage; 21 days after treatment
[2] = system: transplanted paddy rice plant and Bulrush; experiment: Test Example 5: selectivity between transplanted paddy rice plant and weeds; assay type: in vivo; conditions: (highest dosage with no phytotoxicity to paddy rice)/(lowest dosage with effective level 4 on Bulrush); rice 3000-100 g/ha, Bulrush 300-10 g/ha; 21 days
Method in brief: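 Scoring ran 21 days after treatment in a hothouse on a 0–4 scale (4 = 90–100%, 3 = 70–89%, 2 = 40–69%, 1 = 1–39%, 0 = none) relative to untreated plants. Post-emergence bulrush received 10, 30, 100 and 300 g/ha active ingredient. Transplanted rice received 100, 300, 1000 and 3000 g/ha to assess crop injury.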

bulrush [3] = experiment: Test Example 4: low dosage test for rice paddy weeds; assay type: in vivo, Scirpus juncoides; conditions: 300 g/ha as an active ingredient; plants treated at the one leaf stage; 21 days after treatment; vs untreated control
Method in brief: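 Compound applied as a formulation at 300 g/ha to one-leaf bulrush grown in flooded clay loam (5 cm water) in a hot house. After 21 days, growth inhibition versus untreated plants rated on a 0–4 scale, with 4 meaning 90–100%.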

[4] = system: paddy rice plant (cultivar: Nihonbare); experiment: Test Example 3: phytotoxicity test for transplanted paddy rice plant; assay type: in vivo; conditions: dosage 1000 g/ha; transplanted rice, treated 5 days after transplantation; 21 days after treatment
Method in brief: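 Clay loam soil was placed in a 75 cm^2 plastic pot and flooded to a water depth of 5 cm. Two Nihonbare paddy rice plants at the two-leaf stage were transplanted 1 cm deep and grown in a hot house. After treatment, pots stayed in the hot house for 21 days, and phytotoxicity was then graded against an untreated control.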

bulrush [5] = experiment: Test Example 1: herbicidal efficacy on rice paddy weeds pre-emergence; assay type: in vivo, Scirpus juncoides; conditions: dosage 1000 g/ha, 21 days
false pimpernel [6] = experiment: Test Example 2: herbicidal efficacy on rice paddy weeds post-emergence; assay type: in vivo, Lindernia pyxidaria; conditions: dosage 1000 g/ha; post-emergence, one leaf stage; 21 days after treatment
false pimpernel [7] = experiment: Test Example 1: herbicidal efficacy on rice paddy weeds pre-emergence; assay type: in vivo, Lindernia pyxidaria; conditions: dosage 1000 g/ha, 21 days
barnyard glass = experiment: Test Example 2: herbicidal efficacy on rice paddy weeds post-emergence; assay type: in vivo, Echinochloa crus-galli; conditions: dosage 1000 g/ha; post-emergence, one leaf stage; 21 days after treatment
Method in brief: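 Efficacy on paddy weeds was scored on a 0 to 4 growth-inhibition scale: 4 for 90%-100%, 3 for 70%-89%, 2 for 40%-69%, 1 for 1%-39% and 0 for 0%. Barnyard glass was grown in clay loam in 75 cm^2 pots under 5 cm of water in a hot house. It was compared with untreated pots 21 days after treatment.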

Row | Compound | Bulrush post (herbicidal efficacy grade) (bulrush [1]) | Selective Index [2] | Herbicide effect to Bulrush (bulrush [3]) | Phytotoxicity to paddy rice [4] | Bulrush pre (herbicidal efficacy grade) (bulrush [5]) | False pimpernel post (herbicidal efficacy grade) (false pimpernel [6]) | False pimpernel pre (herbicidal efficacy grade) (false pimpernel [7]) | Burnyard grass post (herbicidal efficacy grade) (barnyard glass)
1 | CC1CN(Cc2ccccc2NS(=O)(=O)C(F)(F)F)C(=O)O1 (stereo not drawn) [1-17] | 4 (90%-100% of herbicidal efficacy or phytotoxicity) | 10 | 3 (70%-89% of herbicidal efficacy or phytotoxicity) | 0 (0% of herbicidal efficacy or phytotoxicity) | 4 (90%-100% of herbicidal efficacy or phytotoxicity) | 4 (90%-100% of herbicidal efficacy or phytotoxicity) | 4 (90%-100% of herbicidal efficacy or phytotoxicity) | 4 (90%-100% of herbicidal efficacy or phytotoxicity)
2 | CC(C)C1CN(Cc2ccccc2NS(=O)(=O)C(F)(F)F)C(=O)O1 (stereo not drawn) [1-31] | 4 (90%-100% of herbicidal efficacy or phytotoxicity) | ≧10 | 4 (90%-100% of herbicidal efficacy or phytotoxicity) | 1 (1%-39% of herbicidal efficacy or phytotoxicity) | 4 (90%-100% of herbicidal efficacy or phytotoxicity) | 4 (90%-100% of herbicidal efficacy or phytotoxicity) | 4 (90%-100% of herbicidal efficacy or phytotoxicity) | 4 (90%-100% of herbicidal efficacy or phytotoxicity)
3 | CC(C)COC(=O)N(c1ccccc1CN1CC(C(C)C)OC1=O)S(=O)(=O)C(F)(F)F (stereo not drawn) [1-32] | 4 (90%-100% of herbicidal efficacy or phytotoxicity) | 10 | 3 (70%-89% of herbicidal efficacy or phytotoxicity) | 0 (0% of herbicidal efficacy or phytotoxicity) | 4 (90%-100% of herbicidal efficacy or phytotoxicity) | 4 (90%-100% of herbicidal efficacy or phytotoxicity) | 4 (90%-100% of herbicidal efficacy or phytotoxicity) | 4 (90%-100% of herbicidal efficacy or phytotoxicity)
4 | CC(C)COC(=O)N(c1ccccc1CN1CC(CCl)OC1=O)S(=O)(=O)C(F)(F)F (stereo not drawn) [1-40] | 4 (90%-100% of herbicidal efficacy or phytotoxicity) | 100 | 4 (90%-100% of herbicidal efficacy or phytotoxicity) | 0 (0% of herbicidal efficacy or phytotoxicity) | 4 (90%-100% of herbicidal efficacy or phytotoxicity) | 4 (90%-100% of herbicidal efficacy or phytotoxicity) | 4 (90%-100% of herbicidal efficacy or phytotoxicity) | 4 (90%-100% of herbicidal efficacy or phytotoxicity)
5 | CC1(C)CN(Cc2ccccc2NS(=O)(=O)C(F)(F)F)C(=O)O1 [1-43] | 4 (90%-100% of herbicidal efficacy or phytotoxicity) | 10 | 4 (90%-100% of herbicidal efficacy or phytotoxicity) | 2 (40%-69% of herbicidal efficacy or phytotoxicity) | 4 (90%-100% of herbicidal efficacy or phytotoxicity) | 4 (90%-100% of herbicidal efficacy or phytotoxicity) | 4 (90%-100% of herbicidal efficacy or phytotoxicity) | 4 (90%-100% of herbicidal efficacy or phytotoxicity)
6 | CC(C)COC(=O)N(c1ccccc1CN1CC(C)(C)OC1=O)S(=O)(=O)C(F)(F)F [1-44] | 4 (90%-100% of herbicidal efficacy or phytotoxicity) | 30 | 4 (90%-100% of herbicidal efficacy or phytotoxicity) | 2 (40%-69% of herbicidal efficacy or phytotoxicity) | 4 (90%-100% of herbicidal efficacy or phytotoxicity) | 4 (90%-100% of herbicidal efficacy or phytotoxicity) | 4 (90%-100% of herbicidal efficacy or phytotoxicity) | 4 (90%-100% of herbicidal efficacy or phytotoxicity)
7 | CC(C)COC(=O)N(c1ccccc1CN1CC2(CCCCC2)OC1=O)S(=O)(=O)C(F)(F)F [1-46] | 4 (90%-100% of herbicidal efficacy or phytotoxicity) | 10 | 4 (90%-100% of herbicidal efficacy or phytotoxicity) | 1 (1%-39% of herbicidal efficacy or phytotoxicity) | 4 (90%-100% of herbicidal efficacy or phytotoxicity) | 4 (90%-100% of herbicidal efficacy or phytotoxicity) | 4 (90%-100% of herbicidal efficacy or phytotoxicity) | 4 (90%-100% of herbicidal efficacy or phytotoxicity)
8 | CC(C)COC(=O)N(c1ccccc1CN1C(=O)OC2CCCCC21)S(=O)(=O)C(F)(F)F (stereo not drawn) [1-48] | 4 (90%-100% of herbicidal efficacy or phytotoxicity) | 10 | 3 (70%-89% of herbicidal efficacy or phytotoxicity) | 1 (1%-39% of herbicidal efficacy or phytotoxicity) | 4 (90%-100% of herbicidal efficacy or phytotoxicity) | 4 (90%-100% of herbicidal efficacy or phytotoxicity) | 4 (90%-100% of herbicidal efficacy or phytotoxicity) | 4 (90%-100% of herbicidal efficacy or phytotoxicity)
9 | CC1(C)CN(Cc2ccccc2NS(=O)(=O)C(F)(F)F)C(=S)O1 [1-49] | 4 (90%-100% of herbicidal efficacy or phytotoxicity) | 10 | 4 (90%-100% of herbicidal efficacy or phytotoxicity) | 2 (40%-69% of herbicidal efficacy or phytotoxicity) | 4 (90%-100% of herbicidal efficacy or phytotoxicity) | 4 (90%-100% of herbicidal efficacy or phytotoxicity) | 4 (90%-100% of herbicidal efficacy or phytotoxicity) | 4 (90%-100% of herbicidal efficacy or phytotoxicity)
10 | CC(C)COC(=O)N(c1ccccc1CN1CC(C)(C)OC1=S)S(=O)(=O)C(F)(F)F [1-50] | 4 (90%-100% of herbicidal efficacy or phytotoxicity) | 10 | 4 (90%-100% of herbicidal efficacy or phytotoxicity) | 2 (40%-69% of herbicidal efficacy or phytotoxicity) | 4 (90%-100% of herbicidal efficacy or phytotoxicity) | 4 (90%-100% of herbicidal efficacy or phytotoxicity) | 4 (90%-100% of herbicidal efficacy or phytotoxicity) | 4 (90%-100% of herbicidal efficacy or phytotoxicity)
11 | CC[C@@H]1CN(Cc2ccccc2NS(=O)(=O)C(F)(F)F)C(=O)O1 [1-57] | 4 (90%-100% of herbicidal efficacy or phytotoxicity) | 10 | 4 (90%-100% of herbicidal efficacy or phytotoxicity) | 1 (1%-39% of herbicidal efficacy or phytotoxicity) | 4 (90%-100% of herbicidal efficacy or phytotoxicity) | 4 (90%-100% of herbicidal efficacy or phytotoxicity) | 4 (90%-100% of herbicidal efficacy or phytotoxicity) | 4 (90%-100% of herbicidal efficacy or phytotoxicity)
12 | CC[C@@H]1CN(Cc2ccccc2N(C(=O)OCC(C)C)S(=O)(=O)C(F)(F)F)C(=O)O1 [1-58] | 4 (90%-100% of herbicidal efficacy or phytotoxicity) | ≧30 | 4 (90%-100% of herbicidal efficacy or phytotoxicity) | 1 (1%-39% of herbicidal efficacy or phytotoxicity) | 4 (90%-100% of herbicidal efficacy or phytotoxicity) | 4 (90%-100% of herbicidal efficacy or phytotoxicity) | 4 (90%-100% of herbicidal efficacy or phytotoxicity) | 4 (90%-100% of herbicidal efficacy or phytotoxicity)

— US20080274892A1, “Novel Haloalkylsulfonanilide Derivative, Herbicide, and Method of Use Thereof” (priority 2005, published 2008)
